The source of these data is patent EP1219604A1, “METHOD FOR IMPROVING THE SOLUBILITY OF TRICYCLIC AMINO ALCOHOL DERIVATIVES” (Asahi Kasei Kabushiki Kaisha, priority 1999, dated 2001).

Where two headings read alike, the source gives them in different places.

The nature of series [1]: Crystallinity by powder X-ray diffractometry. It counts as physicochemical. As to conditions: for crystallinity: equation of crystallinity. The source says:
Whether a compound of the general formula (1) is amorphous or not, or the degree of amorphous status thereof can be determined based on its crystallinity, for example, measured by powder X-ray diffractometry. Generally, the degree of amorphous status can be indicated with the following equation. Degree of Amorphous status = 100 - Crystallinity [formula]
Powder X-ray diffractometry is a method comprising irradiating a powder sample with X-ray to compulsively oscillate electrons contained in the sample material, and measuring at each angle of diffraction the diffraction intensity of the coherent scattering X-ray caused by the compulsively oscillated electrons. The measurement data is indicated with the X-ray diffraction pattern as a diffraction intensity with respect to each angle of diffraction. […] Therefore, an amorphous substance can be distinguished from a crystalline substance based on their X-ray diffraction patterns and/or crystallinities. The measurement by powdery X-ray diffractometry in accordance with the present invention can be carried out with Shimadzu Powder X-ray Diffractometer (XRD-6000) under the following measurement conditions.
• Anticathode: Cu • X-ray tube voltage: 40 kV • X-ray tube current: 30 mA • Goniometer • Driving axle: θ-2θ • Scanning range: 3-49.98° • Scanning rate: 2°/min
The crystallinity was obtained with the soft of Shimazu Powder X-ray Diffractometer by carrying out the corrected calculation treatment of the Lorentz polarization factor of the measured data, calculating the integrated intensity of the peak derived from crystalline substance (Icr) and the integrated intensity of the peak derived from amorphous substance (Ia),respectively and calculating the concentration of crystalline moiety in the test sample, that is the crystallinity based on the ratio thereof by the following equation: x =(1)/(1 + K ×(I a)/(I cr))× 100 [formula] wherein X is a crystallinity; Icr is an integrated intensity of crystalline moiety; Ia is an integrated intensity of amorphous moiety; K is a ratio of the crystalline moiety of X ray intensity scattered from a certain amount of a material to the amorphous moiety thereof (the calculation is usually done under K=1).
Each standard sample was subjected to a powder X-ray diffraction measurement to determine the peak height and crystallinity of each standard sample (the powder X-ray diffraction pattern of the standard samples 1, 2, 3 and 4 being shown in Figures 1, 8, 9 and 10, respectively). A measurement by powdery X-ray diffractometry was carried out with Shimadzu Powder X-ray Diffractometer (XRD-6000) under the following measurement conditions.
Measurement condition: • Anticathode: Cu • X-ray tube voltage: 40 kV • X-ray tube current: 30 mA • Goniometer • Driving axle: θ-2θ • Scanning range: 3-50° • Scanning rate: 2°/min
The crystallinity was calculated with the soft of Shimadzu Powder X-ray Diffractometer. The thus obtained crystallinity of each standard sample was as follows:
These measurements were carried out based on the height of a diffraction peak as an indication, wherein the diffraction peak is characteristic of Compound A. The characteristic diffraction peak is a diffraction peak which can be distinguished from the diffraction peak derived from a pharmaceutically acceptable carrier and can characterize Compound A. Representative examples of the diffraction peak characteristic of Compound A include peaks at θ-2θ of about 8.5°, about 12.8°, about 16.2°, about 20.4°, about 21.4°, about 25.2° and about 26.9°. It is preferred to select a diffraction peak in which the relation between the height of diffraction peak and the crystallinity has a clear linearity.
With respect to each diffraction peak, a graph showing the correlation between the peak height and the crystallinity was made in which the peak height of each standard sample (vertical axis) is potted against the crystallinity (horizontal axis). […]

The nature of series [2]: Solubility in water, 1st fluid and 2nd fluid of the Japanese pharmacopeia disintegration test (shaking, filtration, HPLC). It counts as physicochemical. As to conditions: thermodynamic from solid. As to the method: That is, the solutions used were the water specified in the disintegration test method of the 13th edition of the Japanese pharmacopeia, the 1st fluid (a model of human gastric juice) and the 2nd fluid(a model of human intestinal juice). The processes for preparing them are as follows:
The 1st fluid (a model of human gastric juice) was an aqueous solution (pH about 1.2) prepared by dissolving sodium chloride (2.0 g) and hydrochloric acid (7.0 mL) in an amount of water such that the total volume is 1,000 mL.
The 2nd fluid (a model of human intestinal juice) was an aqueous solution (pH about 6.8) prepared by mixing a 0.2 M potassium dihydrogen phosphate aqueous solution (250 mL) with a 0.2 N sodium hydroxide aqueous solution (118 mL) and an amount of water such that the total volume is 1,000 mL.
The present compound (Compound A, B, C or D) in the amount of 20 mg was added to each solution (40 mL) set forth above, which was then shaken with a recipro-shaker (170 rpm) for 2 hours. Each sample (4 mL) obtained at 15, 30, 45, 60 and 120 minutes was filtered through a filter having a pore diameter of 0.45 µm to give a sample solution. The concentration of the said compound in the sample solution was determined by high performance liquid chromatography and the solubility was calculated. The high performance liquid chromatographic measurement was performed with HITACHI D-7000 (wave length: 254 nm; column: YMC-PACK C18; column temperature: 40°C; injection volume: 10 µL; flow rate: 1 mL/min; mobile phase: a solution obtained by dissolving sodium 1-octanesufonate (4.3 g) in a solution of phosphoric acid (1 mL) in water (1000 mL), and adding acetonitrile (400 mL) to 600 mL of the thus obtained solution . The retention time of each of Compounds A, B, C and D was about 20 minutes, about 14 minuets, about 25 minutes and about 27 minutes, respectively. […]
In this connection, the measurement was carried out according to the procedure of Reference Example 1.

Setting [3] is: pH 1.2, simulated gastric fluid, 1st fluid (model of human gastric juice, pH about 1.2), after 2 hours, crystal form, read-out: Solubility (mg/mL) 1st fluid.
Where [4] appears, read: pH 6.8, fassgf or other biorelevant, 2nd fluid (model of human intestinal juice, pH about 6.8), after 2 hours, crystal form, read-out: Solubility (mg/mL) 2nd fluid.
Where [5] appears, read: water, solubility after 2 hours, compound in crystal form, 20 mg in 40 mL, read-out: Solubility (mg/mL) Water.
The mark [6] stands for this setting: pH 1.2, simulated gastric fluid.
Where [7] appears, read: pH 6.8, fassgf or other biorelevant.

In the case of `CS(=O)(=O)Nc1cccc([C@@H](O)CNCCOc2ccc3c(c2)[nH]c2ccccc23)c1.Cl` [Compound A, (R)-N-[3-[2-[2-(9H-carbazol-2-yloxy)ethylamino]-1-hydroxyethyl]phenyl]methanesulfonamide hydrochloride], in series [1], the “crystallinity, another lot separately prepared” value worked out at 88.8%. In addition, in series [1], the crystallinity is 83.5%. Besides, the solubility at 2 h is 0.002 mg/mL in series [2] (setting [3]), 0.005 mg/mL in series [2] (setting [4]) and 0.123 mg/mL in series [2] (setting [5]).
The like results for `CS(=O)(=O)Nc1cc([C@@H](O)CNCCOc2ccc3c(c2)[nH]c2ccccc23)ccc1O.O=C(O)C(O)C(O)C(=O)O` [Compound B, (R)-N-[5-[2-[2-(9H-carbazol-2-yloxy)ethylamino]-1-hydroxyethyl]-2-hydroxyphenyl]methanesulfonamide D-tartrate] were, in that order, 70.5%, 61.1%, 0.003 mg/mL, 0.003 mg/mL and 1.34 mg/mL.
For `CS(=O)(=O)Nc1cc([C@@H](O)CNCCOc2ccc3c(c2)[nH]c2ccccc23)ccc1Cl.Cl` [Compound C, (R)-N-[5-[2-[2-(9H-carbazol-2-yloxy)ethylamino]-1-hydroxyethyl]-2-chlorophenyl]methanesulfonamide hydrochloride], the “crystallinity, another lot separately prepared” value in series [1] is recorded as 72.0%. For the same molecule, the crystallinity in series [1] is on record as 70.3%. In addition, the solubility at 2 h is 0.008 mg/mL in series [2] (setting [6]), 0.014 mg/mL in series [2] (setting [7]) and 0.471 mg/mL in series [2] (water).
In the case of `CS(=O)(=O)Nc1cc([C@@H](O)CNCCOc2ccc3c(c2)[nH]c2ccccc23)ccc1Br.Cl` [Compound D, (R)-N-[5-[2-[2-(9H-carbazol-2-yloxy)ethylamino]-1-hydroxyethyl]-2-bromophenyl]methanesulfonamide hydrochloride], the solubility at 2 h in series [2] (setting [6]) is 0.035 mg/mL; in series [2] (setting [7]), 0.012 mg/mL; in series [2] (water) it was 0.701 mg/mL.
